Inhibition of growth and IC50 data for 36 molecules are collected here from patent US9353089B2, “Compositions and methods for the treatment of malaria” (Saint Louis University, priority 2013, dated 2016).

Molecules are shown by their SMILES.

In one assay the test system is Plasmodium falciparum 3D7 (CQ-sensitive). As to the kind of experiment: In vitro antimalarial assay (malaria SYBR Green I-based fluorescence, MSF), 3D7. In kind it is cell-based. As to conditions: 3D7, 72 h, read-out: 3D7 % inh @ 1 μM. The method, then: Stock solutions of each test drug were prepared in DMSO at a concentration of 20 mM. The drug solutions were serially diluted with culture medium and distributed to asynchronous parasite cultures on 96-well plates in quadruplicate in a total volume of 100 μL to achieve 0.5% parasitemia with a 2% hematocrit in a total volume of 100 pt. […] After incubation, 100 μL of lysis buffer with 0.2 μL/mL SYBR Green I was added to each well.
Antimalarial potency of compounds was determined by this technique for both Plasmodium falciparum 3D7 (CQ-sensitive) and Dd2 (multi-drug resistant) strains.
Consider `CC(C)COc1cccc(C2(c3cccc(-c4cccnc4)c3)NC(=N)N(C3CCOCC3)C2=O)c1` (stereo not shown) [Example 404, 2-imino-5-(3-isobutoxyphenyl)-5-(3-(pyridin-3-yl)phenyl)-3-(tetrahydro-2H-pyran-4-yl)imidazolidin-4-one], for which the inhibition of growth at 1 µM stood at 7%.

The assay is the same for the next values; noted with them: 3D7, Table 11, read-out: Pf 3D7 IC50.
On to `Cc1cccc(C2(c3cccc(C)c3)NC(=N)N(C3CCCCC3)C2=O)c1` [Example 237, 3-cyclohexyl-2-imino-5,5-bis(3-methylphenyl)-imidazolidin-4-one], for which the IC50 (in general, the midpoint of a concentration-inhibition curve) amounted to 0.533 µM.

With `N=C1NC(c2ccccc2)(c2cccc(Oc3ccccc3)c2)C(=O)N1C1CCCCC1` (stereo not shown) [Example 238, 3-cyclohexyl-2-imino-5-(3-phenoxyphenyl)-5-phenylimidazolidin-4-one], the IC50 worked out at 0.424 µM. Take `N=C1NC(c2cccc(Cl)c2)(c2cccc(Cl)c2)C(=O)N1C1CCCCC1` [Example 267, 5,5-bis(3-chlorophenyl)-3-cyclohexyl-2-iminoimidazolidin-4-one]: the IC50 came out at 1.06 µM.

Consider `N=C1NC(c2cccc(-c3cccnc3)c2)(c2cccc(-c3cccnc3)c2)C(=O)N1C1CCCCC1` [Example 269, 3-cyclohexyl-2-imino-5,5-bis[3-(pyridin-3-yl)phenyl]imidazolidin-4-one], for which the half-maximal inhibitory concentration (IC50) was determined as 0.725 µM.

The same assay, now with this note: 3D7, Table 13, read-out: 3D7 IC50.
As to `C#Cc1cccc(-c2cccc(C3(C4CC4)NC(=N)N(C4CCOCC4)C3=O)c2)c1` (stereo not shown) [Example 497, 5-cyclopropyl-5-(3′-ethynyl-[1,1′-biphenyl]-3-yl)-2-imino-3-(tetrahydro-2H-pyran-4-yl)imidazolidin-4-one], the IC50 amounted to 1.15 µM. Regarding `COc1ccc(C2(c3ccc(OC)cc3)NC(=N)N(C3CCN(Cc4ccccc4)CC3)C2=O)cc1` [Example 250, 3-(1-benzylpiperidin-4-yl)-2-imino-5,5-bis(4-methoxyphenyl)-imidazolidin-4-one], the IC50 amounted to 2.74 µM. On to `COc1ccc(C2(c3ccc(OC)cc3)NC(=N)N(Cc3cccc(C(F)(F)F)c3)C2=O)cc1` [Example 249, 2-imino-5,5-bis(4-methoxyphenyl)-3-{[3-(trifluoromethyl)-phenyl]methyl} imidazolidin-4-one], for which the IC50 was 1.52 µM. As for `COc1ccc(C2(c3ccc(OC)cc3)NC(=N)N(C3CCN(Cc4ccccc4O)CC3)C2=O)cc1` [Example 571, 3-(1-(2-hydroxybenzyl)piperidin-4-yl)-2-imino-5,5-bis(4-methoxyphenyl)-imidazolidin-4-one], the IC50 is 0.4 µM.

For the molecule `Cc1cccc(C2(c3cccc(C)c3)NC(=N)N(C3CCCCC3)C2=O)c1` [Example 237, 3-cyclohexyl-2-imino-5,5-bis(3-methylphenyl)-imidazolidin-4-one], the IC50 is 0.533 µM. With `N=C1NC(c2ccc(O)cc2)(c2ccc(O)cc2)C(=O)N1C1CCCCC1` [Example 547, 3-cyclohexyl-5,5-bis(4-hydroxyphenyl)-2-iminoimidazolidin-4-one], the IC50 was 0.85 µM. As for `N=C1NC(c2ccccc2)(c2cccc(Oc3ccccc3)c2)C(=O)N1C1CCCCC1` (stereo not shown) [Example 238, 3-cyclohexyl-2-imino-5-(3-phenoxyphenyl)-5-phenylimidazolidin-4-one], the IC50 amounted to 0.424 µM. Regarding `COc1ccc(C2(c3ccc(OC)cc3)NC(=N)N(Cc3cccc(Cl)c3)C2=O)cc1` [Example 235, 3-[(3-chlorophenyl)-methyl]-2-imino-5,5-bis(4-methoxyphenyl)-imidazolidin-4-one], the IC50 was 0.684 µM. Consider `N#Cc1cccc(-c2cccc(C3(C4CC4)NC(=N)N(C4CCCCC4)C3=O)c2)c1` (stereo not shown) [Example 486, 3′-(1-cyclohexyl-4-cyclopropyl-2-imino-5-oxoimidazolidin-4-yl)-[1,1′-biphenyl]-3-carbonitrile], for which the IC50 stood at 1.46 µM.

`N=C1NC(c2cccc(Cl)c2)(c2cccc(Cl)c2)C(=O)N1C1CCCCC1` [Example 267, 5,5-bis(3-chlorophenyl)-3-cyclohexyl-2-iminoimidazolidin-4-one]: the IC50 is 1.06 µM. For `COc1ccc(C2(c3ccc(OC)cc3)NC(=N)N(Cc3ccccc3Br)C2=O)cc1` [Example 307, 3-[(2-bromophenyl)-methyl]-2-imino-5,5-bis(4-methoxy-phenyl)imidazolidin-4-one], the IC50 worked out at 5.56 µM. With `N=C1NC(c2ccc(F)c(F)c2)(C2CC2)C(=O)N1C1CCOCC1` (stereo not shown) [Example 498, 5-cyclopropyl-5-(3,4-difluorophenyl)-2-imino-3-(tetrahydro-2H-pyran-4-yl)imidazolidin-4-one], the IC50 worked out at 1.29 µM. With `COc1ccccc1C1(C2CC2)NC(=N)N(C2CCOCC2)C1=O` (stereo not shown) [Example 518, 5-cyclopropyl-2-imino-5-(2-methoxyphenyl)-3-(tetrahydro-2H-pyran-4-yl)imidazolidin-4-one], the IC50 was 5.32 µM. Same read-out and setting: as for `N=C1NC(c2ccc(O)cc2)(C2CC2)C(=O)N1C1CCCCC1` (stereo not shown) [Example 551, 3-cyclohexyl-5-cyclopropyl-5-(4-hydroxyphenyl)-2-iminoimidazolidin-4-one], the figure is 0.78 µM; as for `N#Cc1cccc(-c2cccc(C3(C4CC4)NC(=N)N(C4CCOCC4)C3=O)c2)c1` (stereo not shown) [Example 414, 3′-(4-cyclopropyl-2-imino-5-oxo-1-(tetrahydro-2H-pyran-4-yl)imidazolidin-4-yl)-[1,1′-biphenyl]-3-carbonitrile], 0.293 µM; as for `N=C1NC(c2ccccc2Cl)(C2CC2)C(=O)N1C1CCOCC1` (stereo not shown) [Example 500, 5-(2-chlorphenyl)-5-cyclopropyl-2-imino-3-(tetrahydro-2H-pyran-4-yl)imidazolidin-4-one], 2.36 µM. In the case of `N=C1NC(c2cccc(-c3cncc(Cl)c3)c2)(C2CCCCC2)C(=O)N1C1CCOCC1` (stereo not shown) [Example 516, 5-(3-(5-chloropyridin-3-yl)phenyl)-5-cyclohexyl-2-imino-3-(tetrahydro-2H-pyran-4-yl)imidazolidin-4-one], the IC50 was 0.28 µM. For `N=C1NC(c2cccc(Cl)c2)(C2CC2)C(=O)N1C1CCOCC1` (stereo not shown) [Example 495, 5-(3-chlorophenyl)-5-cyclopropyl-2-imino-3-(tetrahydro-2H-pyran-4-yl)imidazolidin-4-one], the IC50 was determined as 0.93 µM. For the molecule `CNC(=O)c1cccc(C2(c3ccccc3)NC(=N)N(C3CCCCC3)C2=O)c1` (stereo not shown) [Example 273, 3-(1-cyclohexyl-2-imino-5-oxo-4-phenylimidazolidin-4-yl)-N-methylbenzamide], the IC50 was found to be 1.38 µM. `COc1ccc(C2(c3ccc(OC)cc3)NC(=N)N(C3CCN(Cc4cc(Cl)ccc4O)CC3)C2=O)cc1` [Example 569, 3-(1-(5-chloro-2-hydroxybenzyl)piperidin-4-yl)-2-imino-5,5-bis(4-methoxyphenyl)-imidazolidin-4-one]: the IC50 came to 0.45 µM. Same read-out and setting: under `N=C1NC(c2cccc(-c3cncc(Cl)c3)c2)(C2CC2)C(=O)N1C1CCCCC1` (stereo not shown) [Example 514, 5-(3-(5-chloropyridin-3-yl)phenyl)-3-cyclohexyl-5-cyclopropyl-2-iminoimidazolidin-4-one] stands 0.97 µM; under `COc1ccc(C2(c3ccc(OC)cc3)NC(=N)N(C3CCC(C)CC3)C2=O)cc1` (stereo not shown) [Example 270, 2-imino-5,5-bis(4-methoxyphenyl)-3-(4-methylcyclohexyl)imidazolidin-4-one], 0.724 µM. Take `N#Cc1cccc(-c2cccc(C3(c4ccccc4)NC(=N)N(C4CCOCC4)C3=O)c2)c1` (stereo not shown) [Example 413, 3′-(2-imino-5-oxo-4-phenyl-1-(tetrahydro-2H-pyran-4-yl)imidazolidin-4-yl)-[1,1′-biphenyl]-3-carbonitrile]: the IC50 stood at 1.99 µM.

Regarding `N=C1NC(c2cccc(-c3cccnc3)c2)(c2cccc(-c3cccnc3)c2)C(=O)N1C1CCCCC1` [Example 269, 3-cyclohexyl-2-imino-5,5-bis[3-(pyridin-3-yl)phenyl]imidazolidin-4-one], the IC50 came to 0.725 µM. Consider `N=C1NC(c2cccc(O)c2)(C2CC2)C(=O)N1C1CCCCC1` (stereo not shown) [Example 549, 3-cyclohexyl-5-cyclopropyl-5-(3-hydroxyphenyl)-2-iminoimidazolidin-4-one], for which the IC50 turned out to be 1.33 µM. The same measure, in the same setting: as for `COc1ccc(C2(c3ccc(OC)cc3)NC(=N)N(Cc3ccccc3Cl)C2=O)cc1` [Example 234, 3-[(2-chlorophenyl)-methyl]-2-imino-5,5-bis(4-methoxyphenyl)-imidazolidin-4-one], the figure is 0.894 µM; as for `COc1ccc(C2(C3CCCC3)NC(=N)N(C3CCCCC3)C2=O)cc1` (stereo not shown) [Example 493, 3-cyclohexyl-5-cyclopentyl-2-imino-5-(4-methoxyphenyl)imidazolidin-4-one], 0.64 µM; as for `COc1ccc(C2(c3ccc(OC)cc3)NC(=N)N(Cc3ccccn3)C2=O)cc1` [Example 229, 2-imino-5,5-bis(4-methoxyphenyl)-3-(pyridin-2-ylmethyl)-imidazolidin-4-one], 0.682 µM. As for `CC#Cc1cncc(-c2cccc(C3(C4CC4)NC(=N)N(C4CCCCC4)C3=O)c2)c1` (stereo not shown) [Example 515, 3-cyclohexyl-5-cyclopropyl-2-imino-5-(3-(5-(prop-1-yn-1-yl)pyridin-3-yl)phenyl)imidazolidin-4-one], the IC50 worked out at 0.81 µM. On to `COc1cccc(C2(C3CC3)NC(=N)N(C3CCOCC3)C2=O)c1` (stereo not shown) [Example 499, 5-cyclopropyl-2-imino-5-(3-methoxyphenyl)-3-(tetrahydro-2H-pyran-4-yl)imidazolidin-4-one], for which the concentration for half-maximal inhibition (IC50) came to 1.39 µM. For `N#Cc1cccc(-c2cccc(C3(C4CCCCC4)NC(=N)N(C4CCOCC4)C3=O)c2)c1` (stereo not shown) [Example 492, 3′-(4-cyclohexyl-2-imino-5-oxo-1-(tetrahydro-2H-pyran-4-yl)imidazolidin-4-yl)-[1,1′-biphenyl]-3-carbonitrile], the IC50 was 1.11 µM. On the same count and under the same terms, as for `CC(C)COc1ccc(C2(c3ccc(OCC(C)C)cc3)NC(=N)N(C3CCOCC3)C2=O)cc1` [Example 390, 2-imino-5,5-bis[4-(2-methylpropoxy)phenyl]-3-(oxan-4-yl)imidazolidin-4-one], the figure is 4.08 µM. Regarding `COc1cccc(C2(c3cccc(-c4ccccn4)c3)NC(=N)N(C3CCCCC3)C2=O)c1` (stereo not shown) [Example 227, 3-cyclohexyl-2-imino-5-(3-methoxyphenyl)-5-[3-(pyridin-2-yl)phenyl]-imidazolidin-4-one], the IC50 came out at 0.657 µM.

Staying with this assay, now noted: 3D7, read-out: 3D7 IC50 (μM), Table 13.
For `N=C1NC(c2cccc(-c3cccnc3)c2)(C2CC2)C(=O)N1C1CCCCC1` (stereo not shown) [Example 512, 3-cyclohexyl-5-cyclopropyl-2-imino-5-(3-(pyridin-3-yl)phenyl)imidazolidin-4-one], the IC50 came out at 0.38 µM.

The assay is the same for the next values; noted with them: 3D7, read-out: Pf3D7 IC50 (μM), Table 10.
With `CCC(CN1C(=N)NC(c2ccccc2)(c2ccccc2)C1=O)c1ccccc1` (stereo not shown) [drawing 195], the 50% inhibitory concentration (IC50) is 2.76 µM.
